The values that follow come from patent US10683273B2, “Compounds as DNA probes, methods and applications thereof” (JAWAHARLAL NEHRU CENTRE FOR ADVANCED SCIENTIFIC RESEARCH, priority 2015, dated 2020).

Assay type in all cases: binding
Experiment [1] has as its system d(ATAT)5. Nature of the experiment: Switch-on NIR-fluorescence enhancement with DNA. The method, then:
All the chemicals, reagents, single-stranded oligos (dA20, dT20, dG20, dC20), self-complementary oligos {d(ATAT)5, (D1)mix, Drew-AT, Calf-Thymus DNA (CT-DNA), (DM1, DM2, DM3, DM4, DM5, DM6 and DM7)}, RNA, were purchased from Sigma-Aldrich. ^1H and ^13C NMR spectra were recorded on a Bruker AV-400 MHz spectrometer with chemical shifts reported as parts per million (ppm) (in DMSO-d6, tetramethylsilane as an internal standard) at 20° C. UV-vis absorption and emission spectra were measured in quartz cuvettes of 1 cm path length. High resolution mass spectra (HRMS) were obtained on Agilent Technologies 6538 UHD Accurate-Mass Q-TOF LC/MS spectrometer. All biophysical studies (UV-vis, fluorescence and Cirular dichroism) are carried out at the concentration 0-5 μM of probe, volume=500 μL, temperature=25° C. and time of incubation=2 minutes. […]
The UV-vis absorption and emission spectra are recorded on Agilent Technologies Cary series UV-vis-NIR absorbance and Cary eclipse fluorescence spectrophotometers, respectively. […] Absorption is monitored at 260 nm with regular 5° C. intervals. Melting temperatures (Tm) of DNA samples are calculated from the first derivatives of the absorption vs. temperature curves (thermal denaturation or melting curves) obtained by monitoring at 260 nm. […]

For experiment [2], the system named is DM3 (5′-AAAA-3′). Kind of experiment: Sequence-specific fluorescence enhancement, variable (A/T)4 core. Particulars: QCy-DT 2 μM, DM3 4 μM. The method, then: (§1) All the chemicals, reagents, single-stranded oligos (dA20, dT20, dG20, dC20), self-complementary oligos {d(ATAT)5, (D1)mix, Drew-AT, Calf-Thymus DNA (CT-DNA), (DM1, DM2, DM3, DM4, DM5, DM6 and DM7)}, RNA, were purchased from Sigma-Aldrich. ^1H and ^13C NMR spectra were recorded on a Bruker AV-400 MHz spectrometer with chemical shifts reported as parts per million (ppm) (in DMSO-d6, tetramethylsilane as an internal standard) at 20° C. UV-vis absorption and emission spectra were measured in quartz cuvettes of 1 cm path length. High resolution mass spectra (HRMS) were obtained on Agilent Technologies 6538 UHD Accurate-Mass Q-TOF LC/MS spectrometer. All biophysical studies (UV-vis, fluorescence and Cirular dichroism) are carried out at the concentration 0-5 μM of probe, volume=500 μL, temperature=25° C. and time of incubation=2 minutes. HeLa cells and MCF7 cells used in the biological studies are obtained from “Molecular reproduction, development and genetics lab, Indian institute of science, Bangalore, India”
(§2) Stock solutions of QCy-DT are prepared in double-distilled (dd) water in the order of 10^−3 M and stored at about −10° C. DNA stock solutions are prepared by dissolving oligo samples in double-distilled (dd) water in the order of 10^−4 M. Solutions of DNA duplexes are prepared in Tris-HCl (100 mM, pH=7.4) buffer solution by mixing complementary DNA strands in equimolar concentration. This solution is then subjected to annealing by heating up to about 85° C. for about 15 minutes, subsequently cooled to room temperature for about 7 hours and stored in the refrigerator (about 4° C.) for about 4 hours.
(§3) The UV-vis absorption and emission spectra are recorded on Agilent Technologies Cary series UV-vis-NIR absorbance and Cary eclipse fluorescence spectrophotometers, respectively. Thermal denaturation (UV-melting) studies are carried out on Cary 5000 UV-vis-NIR spectrophotometer equipped with Cary temperature controller in the range of 10° C. to 90° C. with a ramp rate of 1° C./min. The variable temperature/wavelength mode is used. Absorption is monitored at 260 nm with regular 5° C. intervals. Melting temperatures (Tm) of DNA samples are calculated from the first derivatives of the absorption vs. temperature curves (thermal denaturation or melting curves) obtained by monitoring at 260 nm.
(§4) Almost about ˜4-folds difference in fluorescence enhancement of QCy-DT in the presence of (A-T)20 compared to self-complementary, alternative AT-base pair containing d(ATAT)5 duplex is observed, although both contain total 20 AT base pairs (FIG. 3 and FIG. 12a). […] There are no NIR-fluorescence probes that sequence-specifically recognize the minor groove of AT-rich DNA. […] Further, QCy-DT detects all AT-rich sequences by showing varied fluorescence/sensitivity. […]

For experiment [3], the system named is DM4 (5′-AATT-3′). Described as above. The note with it: QCy-DT 2 μM, DM4 4 μM. The method, then: as §1, §2, §3, §4
Experiment [4] has as its system DM2 (5′-ATTA-3′). Described as above. Particulars: QCy-DT 2 μM, DM2 4 μM. The method, then:
as §1, §2, §3, §4

For experiment [5], the system named is DM1 (5′-ATAT-3′). Described as above. Particulars: QCy-DT 2 μM, DM1 4 μM. The method, then:
as §1, §2, §3, §4

The test system of experiment [6] is d(ATAT)5. Kind of experiment: UV-melting (UV-Tm) of DNA duplex with probe. The note with it: d(ATAT)5 with QCy-DT vs duplex alone. The method, then:
as §3
(§5) To understand the effect of QCy-DT binding to DNA on the thermal stability of DNA, temperature-dependent UV-melting studies (UV-Tm) is performed on different [QCy-DT+DNA] complexes. […] Therefore, the binding affinity, fluorescence quantum yield, and UV-Tm data validated the preferential recognition of AT-rich DNA by QCy-DT probe compared to GC-rich DNA.

In experiment [7] the test system is (A-T)20. Nature of the experiment: UV-melting (UV-Tm) of DNA duplex with probe. Particulars: (A-T)20 with QCy-DT vs duplex alone. The method, then: as §3, §5
The test system of experiment [8] is (D1)mix. Kind of experiment: UV-melting (UV-Tm) of DNA duplex with probe. The note with it: (D1)mix with QCy-DT vs duplex alone. The method, then:
as §3, §5

Experiment [9] deals with Drew AT. Kind of experiment: UV-melting (UV-Tm) of DNA duplex with probe. Particulars: Drew AT with QCy-DT vs duplex alone. The method, then: as §3, §5

As a reminder, the ΔTm is the shift of the melting midpoint relative to a reference. Take `C[n+]1c(/C=C/c2ccc(O)c(/C=C/c3sc4ccccc4[n+]3C)c2)sc2ccccc21` [QCy-DT, quinone cyanine-dithiazole]: the fluorescence enhancement in experiment [1] is listed as approximately 54 fold; in experiment [2], approximately 40 fold; in [3], approximately 72 fold; in [4] it was approximately 15 fold; in [5], approximately 8 fold. In addition, the shift in melting temperature (ΔTm) turned out to be 3.5 °C in experiment [6], 6.2 °C in experiment [7], 2.5 °C in [8] and 4.2 °C in experiment [9].
